For series [1], the system named is male rats. The series can be described thus: Diuretic Activity and Natriuretic Activity. The format is in vivo. As to conditions: 300 mg/Kg, orally, urine collected for 5 hours, control value subtracted. The protocol: Male rats weighing 150 to 250 g were fasted overnight and, the next morning, orally administered with either (1) 25 ml/Kg of physiological saline (control group) or (2) a test compound which was suspended in 0.5 wt % carboxymethylcellulose. Urine after dosing was collected for 5 hours, and urinary volume and sodium concentration were measured. Each parameter was calculated by subtracting the value of the control group from that of the test group.

Series [2] relates to male rats. As to the kind of experiment: Uricosuric Activity (fractional excretion of uric acid). As to conditions: orally, 30 min urine from 60 min after dosing. It counts as in vivo. The protocol:
Male rats weighing 150 to 250 g were fasted overnight and, the next morning, orally administered with either (1) 25 ml/Kg of physiological saline (control group) or (2) a test compound which was suspended in 0.5 wt % carboxymethylcellulose. After 60 minutes from the administration of the test compound, urine over a period of 30 minutes was collected. Thereafter, blood was taken from the arotid artery under anesthesia, and uric acid concentrations in the urine and the serum were determined by the enzyme method. On the other hand, […] concentrations in the urine and the serum were determined by a Jaffe's method to obtain the fractional excretion of uric acid. Percent of uric acid excretion was calculated by dividing the value of fractional excretion in the test group by that in the control group.

Series [3] concerns hypertensive rats. The series can be described thus: Antihypertensive Activity (DOCA/saline hypertensive rats, tail cuff). The format is in vivo. The settings on record: DOCA hypertensive rats, orally once a day, systolic pressure vs control. The protocol:
Four-week-old male rats weighing 120 to 150 g were subcutaneously injected with DOCA (desoxycorticosterone acetate) and fed on a 1% saline solution to cause hypertension in accordance with the method of Seyle, et al. as described in American Heart Journal, Vol. 37, 1009 (1949). The test compound was orally administered to the hypertensive rats once a day for 4 weeks. The blood pressure of the animal was measured by a tail cuff method every one week from the start of the administration.
In Table 3, antihypertensive activity (ΔmmHg) was obtained by subtracting the systolic pressure of the test group from that of the control group.

For series [4] the following is noted: in words, literature; cited from earlier work.
Series [5] is described as follows: Acute toxicity (LD50). The settings on record: rat, in vivo, po; P.O. in Rats. An excerpt:
The compound of the present invention has a low toxicity, and the acute toxicity (LD50) of typical compounds of formula (I) is shown in the following Table 4.

Each structure is given as a SMILES string.

In the case of `Cc1ccccc1-c1coc2cc(OCC(=O)O)cc(Cl)c2c1=O` [(d), {[5-Chloro-3-(2-methylphenyl)-4-oxo-4H-1-benzopyran-7-yl]oxy}acetic acid], in series [1], the “Increase in Urinary Na^+” value was 1196 ΔμEq and the “Increase in Urinary Output” value was 49.6 Δml/Kg. Also, the “% of Uric Acid Excretion” value in series [2] (100 mg/Kg) is 56%. Besides, in series [3] (100 mg/Kg), the “Antihypertensive Activity After 1 Week” value is listed as 12.1 ΔmmHg, the “Antihypertensive Activity After 2 Weeks” value is 14.3 ΔmmHg and the “Antihypertensive Activity After 3 Weeks” value was 15.7 ΔmmHg.

`CC1(c2ccccc2)Cc2cc(OCC(=O)O)c(Cl)c(Cl)c2C1=O` (centres unmarked) [indacrinone]: the “diuretic, saluretic and uricosuric activities” value in series [4] is “having diuretic and uricosuric activities”.

As a reminder, the LD50 is the dose at which mortality reaches 50%. A low value points to greater toxicity. For `O=C(O)COc1cc(Cl)c2c(=O)c(-c3ccccc3)coc2c1` [(a), [(5-Chloro-4-oxo-3-phenyl-4H-1-benzopyran-7-yl)oxy]acetic acid], in series [1], the “Increase in Urinary Na^+” value was 1220 ΔμEq and the “Increase in Urinary Output” value is reported as 51.8 Δml/Kg. For the same molecule, the “% of Uric Acid Excretion” value in series [2] (100 mg/Kg) was found to be 136%. Further, in series [3] (100 mg/Kg), the “Antihypertensive Activity After 1 Week” value is on record as 13.7 ΔmmHg, the “Antihypertensive Activity After 2 Weeks” value was 37.0 ΔmmHg and the “Antihypertensive Activity After 3 Weeks” value is 49.0 ΔmmHg. Besides, in series [5], the LD50 was 1020 mg/kg.

For the molecule `O=C(O)COc1cc(Cl)c2c(=O)c(Cc3ccccc3)coc2c1` [(e), [(3-Benzyl-5-chloro-4-oxo-4H-1-benzopyran-7-yl)oxy]acetic acid], in series [1], the “Increase in Urinary Na^+” value is recorded as 967 ΔμEq and the “Increase in Urinary Output” value is given as 37.9 Δml/Kg. Moreover, the “% of Uric Acid Excretion” value in series [2] (100 mg/Kg) turned out to be 39%. Also, in series [3] (100 mg/Kg), the “Antihypertensive Activity After 1 Week” value is 6.2 ΔmmHg, the “Antihypertensive Activity After 2 Weeks” value was 28.7 ΔmmHg and the “Antihypertensive Activity After 3 Weeks” value was 39.4 ΔmmHg.

Regarding `O=C(O)COc1cc(Cl)c2c(=O)c(-c3ccccc3Cl)coc2c1` [(c), {[5-Chloro-3-(2-chlorophenyl)-4-oxo-4H-1-benzopyran-7-yl]oxy}acetic acid], in series [1], the “Increase in Urinary Na^+” value was 1015 ΔμEq and the “Increase in Urinary Output” value is listed as 41.0 Δml/Kg. For the same molecule, in series [2] (100 mg/Kg), the “% of Uric Acid Excretion” value came out at 36%. Besides, in series [3] (100 mg/Kg), the “Antihypertensive Activity After 1 Week” value is recorded as 13.6 ΔmmHg, the “Antihypertensive Activity After 2 Weeks” value was 20.7 ΔmmHg and the “Antihypertensive Activity After 3 Weeks” value is given as 29.3 ΔmmHg. The molecule also came in with a median lethal dose (LD50) in series [5] of 1410 mg/kg.

With `O=C(O)COc1ccc(C(=O)c2cccs2)c(Cl)c1Cl` [Tienilic acid, [2,3-dichloro-4-(2-thenoyl)phenoxy]acetic acid, reference compound], in series [1], the “Increase in Urinary Na^+” value was 353.4 ΔμEq and the “Increase in Urinary Output” value is given as 10.2 Δml/Kg. Also, the “% of Uric Acid Excretion” value in series [2] (200 mg/Kg) is recorded as 38%. In series [4], the “diuretic, saluretic and uricosuric activities” value was “having diuretic and uricosuric activities”. Further, in series [3] (300 mg/Kg), the “Antihypertensive Activity After 1 Week” value is 23.6 ΔmmHg, the “Antihypertensive Activity After 2 Weeks” value was 35.0 ΔmmHg and the “Antihypertensive Activity After 3 Weeks” value is recorded as 44.3 ΔmmHg.

Take `Cc1cc(OCC(=O)O)cc2occ(-c3ccccc3)c(=O)c12` [(b), [(5-Methyl-4-oxo-3-phenyl-4H-1-benzopyran-7-yl)oxy]acetic acid]: in series [1], the “Increase in Urinary Na^+” value is 987 ΔμEq and the “Increase in Urinary Output” value is given as 23.6 Δml/Kg. In series [2] (100 mg/Kg), the “% of Uric Acid Excretion” value was 66%. Also, in series [3] (100 mg/Kg), the “Antihypertensive Activity After 1 Week” value was 10.0 ΔmmHg, the “Antihypertensive Activity After 2 Weeks” value is 17.9 ΔmmHg and the “Antihypertensive Activity After 3 Weeks” value is recorded as 15.0 ΔmmHg. In series [5], this molecule registered an LD50 of 936 mg/kg.

The values are drawn from patent US4841076A, “Benzopyran derivatives” (Daiichi Seiyaku Co., Ltd., priority 1986, dated 1989).
